From ChEMBL document CHEMBL1201862, “PubChem BioAssay data set” (2004) come the findings set out here.

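How tested: cells in 96-well plates exposed to compound for 48 hours at five concentrations. GI50 marks 50% less growth.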 Active and inactive are the calls of the source. Rule as the data show it: active = GI50 up to about 1.1 µM and inactive = higher. Some results are limits rather than exact numbers.

Some test systems named below: OVCAR-8; MOLT-4; HT-29; UACC-257; SF-539; COLO 205; MDA-MB-231; HCT-15; SNB-75; K562; ACHN; SK-MEL-2; UACC-62; KM12; SF-295; RXF 393; LOX IMVI; NCI-H23; DU-145; A498.
Common to all, as to experiment: NCI anticancer screen, dose series, 48 h

As to `CC(C)(CCCCC(C)(C)[N+](C)(C)C)[N+](C)(C)C`, the GI50 in the assay with OVCAR-8, in the assay with MOLT-4, in the assay with HT-29, in the assay on UACC-257, in the assay with SF-539 and with COLO 205 was > 100 µM (inactive) in each case. Moreover, the GI50 in the assay on MDA-MB-231 was > 100 µM (inactive); in the assay on HCT-15, greater than 100 µM; in the assay with SNB-75, > 100 µM (inactive); in the assay on K562 it was > 100 µM (inactive); with ACHN it was > 10 µM (inactive).

In the case of `CCOC(=O)c1c(-c2ccc(OC)cc2)c(C#N)c(=S)n(C2OC(COC(C)=O)C(OC(C)=O)C(OC(C)=O)C2OC(C)=O)c1-c1ccccc1` (stereo not given), the GI50 in the assay with SK-MEL-2, in the assay with MOLT-4, with HT-29, in the assay with UACC-257, in the assay with UACC-62 and in the assay on SF-539 was > 100 µM (inactive) in each case. For the same molecule, the GI50 in the assay on MDA-MB-231, with KM12, in the assay with SF-295, in the assay on RXF 393, in the assay with LOX IMVI and in the assay on NCI-H23 was > 100 µM (inactive) throughout. The GI50 in the assay on HCT-15 is greater than 100 µM; in the assay on SNB-75, 60 µM (inactive); in the assay with K562, > 100 µM (inactive); with ACHN, > 100 µM (inactive); in the assay with DU-145, > 100 µM (inactive).

Consider `COc1ccc(/C=C2\CSC/C(=C\c3ccc(OC)c(OC)c3OC)C2=O)c(OC)c1OC`, for which the GI50 in the assay on SK-MEL-2 is 54.6 µM (inactive); in the assay with OVCAR-8, 24.1 µM (inactive); with MOLT-4 it was > 10 µM (inactive); in the assay on HT-29 it was 28.8 µM (inactive); with UACC-257, 42.3 µM (inactive); in the assay with UACC-62, 14.9 µM (inactive). For the same molecule, the GI50 in the assay on SF-539 is 26.4 µM (inactive); with COLO 205, 37.9 µM (inactive); with MDA-MB-231 it was 66.4 µM (inactive); in the assay with KM12, 32.4 µM (inactive); in the assay with SF-295, 25.4 µM (inactive); with RXF 393, 15.6 µM (inactive). For the same molecule, the GI50 in the assay with LOX IMVI was 23.4 µM (inactive); with NCI-H23, 43.5 µM (inactive); in the assay on HCT-15, 25.6 µM; with K562, 23.1 µM (inactive); in the assay with ACHN, 16.9 µM (inactive); in the assay on DU-145, > 100 µM (inactive).

Consider `Cc1c(C(=O)O)sc2nc[nH]c(=O)c12`, for which the GI50 in the assay with SK-MEL-2, with OVCAR-8, with MOLT-4, in the assay with HT-29, in the assay with UACC-257 and in the assay with UACC-62 was > 100 µM (inactive) in each case. Further, the GI50 with SF-539, in the assay with COLO 205, in the assay on MDA-MB-231, with KM12, in the assay on SF-295 and in the assay on RXF 393 was > 100 µM (inactive) throughout. The GI50 in the assay with LOX IMVI was > 100 µM (inactive); in the assay with NCI-H23, > 100 µM (inactive); in the assay on HCT-15, greater than 100 µM; in the assay with SNB-75 it was 49.8 µM (inactive); in the assay with K562, > 100 µM (inactive); in the assay with ACHN, > 100 µM (inactive). Moreover, the GI50 in the assay on DU-145 is > 100 µM (inactive).

For the molecule `Nc1ccc2ccc(N3CCNCC3)nc2n1`, the GI50 was 35.1 µM (inactive) in the assay with SK-MEL-2; > 100 µM (inactive) in the assay with OVCAR-8; 32.4 µM (inactive) in the assay with MOLT-4; 33.7 µM (inactive) in the assay on HT-29; > 100 µM (inactive) in the assay on UACC-257; 59.2 µM (inactive) in the assay on UACC-62. For the same molecule, the GI50 with SF-539 is 71.3 µM (inactive); in the assay on COLO 205 it was 49.1 µM (inactive); with MDA-MB-231, 37.3 µM (inactive); in the assay on KM12 it was 48.2 µM (inactive); with SF-295, 39.9 µM (inactive); in the assay on LOX IMVI it was > 100 µM (inactive). Further, the GI50 was 56.8 µM (inactive) in the assay with NCI-H23; 76.6 µM in the assay with HCT-15; > 100 µM (inactive) in the assay on SNB-75; 50.8 µM (inactive) in the assay with K562; 74.8 µM (inactive) in the assay on ACHN; > 100 µM (inactive) in the assay on DU-145.

For `COC(=O)NCCc1n[nH]c2c1C(=O)C=C(OC)C2=O`, the GI50 with SK-MEL-2 was 54.2 µM (inactive); in the assay with OVCAR-8, 22 µM (inactive); in the assay with MOLT-4, 19.9 µM (inactive); in the assay on HT-29 it was 42.6 µM (inactive); in the assay with UACC-257, 15 µM (inactive); with UACC-62 it was 25.4 µM (inactive). Besides, the GI50 was 19.4 µM (inactive) in the assay with SF-539; 24.8 µM (inactive) with COLO 205; 16.1 µM (inactive) in the assay with MDA-MB-231; 20.9 µM (inactive) in the assay on KM12; 18.2 µM (inactive) in the assay with SF-295; 17.6 µM (inactive) in the assay on RXF 393. The GI50 is 17.8 µM (inactive) with LOX IMVI; 20 µM (inactive) in the assay with NCI-H23; 28.4 µM in the assay on HCT-15; 19.2 µM (inactive) in the assay on SNB-75; 17.5 µM (inactive) in the assay with K562; 19.1 µM (inactive) in the assay on ACHN. Besides, the GI50 in the assay with DU-145 was 52.6 µM (inactive).

As for `O=C(NCc1cccc(C(F)(F)F)c1)c1cc2sccc2nc1C(F)(F)F`, the GI50 in the assay with SK-MEL-2 is > 100 µM (inactive); with OVCAR-8, 88.7 µM (inactive); with MOLT-4, 82.2 µM (inactive); with HT-29, > 100 µM (inactive); with UACC-257 it was > 100 µM (inactive); in the assay on UACC-62, > 100 µM (inactive). Also, the GI50 is 63.7 µM (inactive) with SF-539; > 100 µM (inactive) in the assay with COLO 205; 51.4 µM (inactive) in the assay with MDA-MB-231; > 100 µM (inactive) in the assay with KM12; 46.7 µM (inactive) in the assay on SF-295; 27.7 µM (inactive) in the assay on RXF 393. The GI50 is > 100 µM (inactive) in the assay with NCI-H23, > 100 µM (inactive) in the assay on K562 and 38.7 µM (inactive) in the assay on ACHN.

Take `Cc1cc2[nH]c3c(C#N)c4c(c(=O)n3c2cc1C)CCCC4`: the GI50 in the assay on SK-MEL-2, in the assay on OVCAR-8, in the assay with MOLT-4, with HT-29, in the assay with UACC-257 and with UACC-62 was > 100 µM (inactive) each time. Further, the GI50 was > 100 µM (inactive) in the assay with SF-539; > 100 µM (inactive) with COLO 205; > 100 µM (inactive) in the assay on MDA-MB-231; > 100 µM (inactive) with KM12; 16 µM (inactive) with SF-295; > 100 µM (inactive) with LOX IMVI. In addition, the GI50 in the assay on NCI-H23 was > 100 µM (inactive); with HCT-15, greater than 100 µM; in the assay with K562, 64.9 µM (inactive); with ACHN it was 72.1 µM (inactive); in the assay on A498 it was > 100 µM (inactive); in the assay with DU-145, > 100 µM (inactive).
